Counter-ions that a name gives are not always drawn. ± gives the standard deviation of the averaged measurements.

For the experiment, the system named is HeLa. Put plainly: cell viability (CellTiter-Glo) relative to median of lowest-dilution wells of all drugs (fraction); higher = more viable cells. As to the method:
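HeLa control and CRISPR DDX11 knockout cells were seeded in 384-well plates and incubated for 72 h with each of 64 […] drugs at six concentrations. Viability was read with CellTiter-Glo and normalised to the median of the lowest (6th) dilution wells of all drugs. Two biological replicates (BR1, BR2) are averaged; the concentration unit is not stated.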

Setting [1] is: drug concentration (unit not stated): 0.04, genotype: DDX11 knockout.
[2] abbreviates: drug concentration (unit not stated): 0.04, genotype: control (DDX11 wild type).
The mark [3] stands for this setting: drug concentration (unit not stated): 0.12, genotype: DDX11 knockout.
Setting [4] is: drug concentration (unit not stated): 0.12, genotype: control (DDX11 wild type).
Where [5] appears, read: drug concentration (unit not stated): 0.37, genotype: DDX11 knockout.
The mark [6] stands for this setting: drug concentration (unit not stated): 0.37, genotype: control (DDX11 wild type).
Setting [7] is: drug concentration (unit not stated): 1.11, genotype: DDX11 knockout.
Setting [8] is: drug concentration (unit not stated): 1.11, genotype: control (DDX11 wild type).
Setting [9] is: drug concentration (unit not stated): 3.33, genotype: DDX11 knockout.
Setting [10] is: drug concentration (unit not stated): 3.33, genotype: control (DDX11 wild type).
The mark [11] stands for this setting: drug concentration (unit not stated): 10, genotype: DDX11 knockout.
[12] abbreviates: drug concentration (unit not stated): 10, genotype: control (DDX11 wild type).
Setting [13] is: drug concentration (unit not stated): 0.01, genotype: DDX11 knockout.
[14] abbreviates: drug concentration (unit not stated): 0.01, genotype: control (DDX11 wild type).

As to `Nc1nc2[nH]cnc2c(=S)[nH]1` [Thioguanine], the cell viability is 1.03 ± 0.045 under setting [1]; 1.04 ± 0.04 under setting [2]; 0.992 ± 0.017 under setting [3]; 0.971 ± 0.044 under setting [4]; 0.94 ± 0.039 under setting [5]; 0.762 ± 0.065 under setting [6]. The cell viability under setting [7] came out at 0.731 ± 0.15; the cell viability under setting [8] turned out to be 0.428 ± 0.15; the cell viability under setting [9] amounted to 0.536 ± 0.12; the cell viability under setting [10] was found to be 0.433 ± 0.21; the cell viability under setting [11] is 0.239 ± 0.025; the cell viability under setting [12] was 0.387 ± 0.2.

As to `CC[C@@]1(O)C(=O)OCc2c1cc1n(c2=O)Cc2cc3c(CN(C)C)c(O)ccc3nc2-1` [Topotecan HCl], the cell viability runs as follows: under setting [13], 0.74 ± 0.27; under setting [14], 0.86 ± 0.14; under setting [1], 0.519 ± 0.38; under setting [2], 0.709 ± 0.57; under setting [3], 0.206 ± 0.19; under setting [4], 0.228 ± 0.21. Further, the cell viability amounted to 0.0639 ± 0.033 under setting [5]; 0.0738 ± 0.043 under setting [6]; 0.0268 ± 0.0046 under setting [7]; 0.0567 ± 0.046 under setting [8]; 0.0244 ± 0.0069 under setting [9]; 0.0265 ± 0.01 under setting [10].

As for `Cc1cc(Nc2cc(N3CCN(C)CC3)nc(Sc3ccc(NC(=O)C4CC4)cc3)n2)n[nH]1` [Tozasertib (VX-680)], the cell viability under setting [3] came out at 0.959 ± 0.016; the cell viability under setting [4] turned out to be 0.978 ± 0.1; the cell viability under setting [5] is 0.951 ± 0.025; the cell viability under setting [6] came to 1.1 ± 0.2; the cell viability under setting [7] came to 0.976 ± 0.087; the cell viability under setting [8] worked out at 1.03 ± 0.22. Moreover, the cell viability turned out to be 0.912 ± 0.048 under setting [9]; 1.02 ± 0.23 under setting [10]; 0.823 ± 0.04 under setting [11]; 0.975 ± 0.22 under setting [12]; 0.659 ± 0.067 (drug concentration (unit not stated): 30, genotype: DDX11 knockout); 0.764 ± 0.19 (drug concentration (unit not stated): 30, genotype: control (DDX11 wild type)).

Turning to `COc1cc2c(cc1O)CCN[C@]21CS[C@@H]2c3c(OC(C)=O)c(C)c4c(c3[C@H](COC1=O)N1[C@@H]2[C@H]2c3c(cc(C)c(OC)c3O)C[C@@H]([C@@H]1O)N2C)OCO4` [Trabectedin (Yondelis)], the cell viability turned out to be 1.061 ± 0.0098 under setting [13]; 1.05 ± 0.0085 under setting [14]; 1.01 ± 0.044 under setting [1]; 1 ± 0.031 under setting [2]; 1 ± 0.034 under setting [3]; 1.02 ± 0.034 under setting [4]. Moreover, the cell viability runs as follows: under setting [5], 0.9874 ± 0.0059; under setting [6], 1.02 ± 0.025; under setting [7], 0.913 ± 0.14; under setting [8], 1.034 ± 0.0075.

For the compound `CC(=O)Nc1cccc(-n2c(=O)n(C3CC3)c(=O)c3c(Nc4ccc(I)cc4F)n(C)c(=O)c(C)c32)c1` [Trametinib], the cell viability reads like this: under setting [1], 0.814 ± 0.081; under setting [2], 0.908 ± 0.2; under setting [3], 0.773 ± 0.058; under setting [4], 0.914 ± 0.18; under setting [5], 0.861 ± 0.12; under setting [6], 0.976 ± 0.28. Further, the cell viability by setting is: under setting [7], 0.736 ± 0.17; under setting [8], 0.952 ± 0.31; under setting [9], 0.613 ± 0.23; under setting [10], 0.968 ± 0.34; under setting [11], 0.46 ± 0.03; under setting [12], 0.706 ± 0.17.

As for `CC[C@]1(O)C[C@@H]2CN(CCc3c([nH]c4ccccc34)[C@@](C(=O)OC)(c3cc4c(cc3OC)N(C)[C@H]3[C@@](O)(C(=O)OC)[C@H](OC(C)=O)[C@]5(CC)C=CCN6CC[C@]43[C@@H]65)C2)C1` [Vinblastine], the cell viability under setting [13] was 0.751 ± 0.37; the cell viability under setting [14] was found to be 0.802 ± 0.21; the cell viability under setting [1] is 0.538 ± 0.36; the cell viability under setting [2] was 0.799 ± 0.44; the cell viability under setting [3] is 0.374 ± 0.092; the cell viability under setting [4] was 0.441 ± 0.2. Also, the cell viability came to 0.392 ± 0.0058 under setting [5]; 0.31 ± 0.042 under setting [6]; 0.3923 ± 0.00082 under setting [7]; 0.355 ± 0.12 under setting [8]; 0.401 ± 0.042 under setting [9]; 0.359 ± 0.089 under setting [10].

On to `CNC(=O)c1cccc(-c2ccc3c(N4CCOC[C@@H]4C)nc(N4CCOC[C@@H]4C)nc3n2)c1` [Vistusertib (AZD2014)], for which the cell viability reads like this: under setting [1], 0.902 ± 0.082; under setting [2], 0.938 ± 0.15; under setting [3], 0.777 ± 0.13; under setting [4], 0.973 ± 0.3; under setting [5], 0.668 ± 0.16; under setting [6], 0.917 ± 0.29. Also, the cell viability under setting [7] was found to be 0.449 ± 0.081; the cell viability under setting [8] is 0.637 ± 0.16; the cell viability under setting [9] came to 0.356 ± 0.03; the cell viability under setting [10] was 0.533 ± 0.17; the cell viability under setting [11] worked out at 0.344 ± 0.048; the cell viability under setting [12] is 0.436 ± 0.17.

Values taken from the supplement of paper PMC8092582.
